“Also recorded” adds a separate entry of the source.
Columns and labels:
[1] = test system: Hippocampal primary neurons; assay: Neurite outgrowth analysis; type: cell-based, rats; conditions: 1.5 μM or 15 μM, 2 days in culture; versus negative control and Fasudil; FIG. 15
Protocol: The effect of test compounds on neurite outgrowth can be assessed in vitro. Hippocampal primary neurons prepared from embryonic (E18) rats were cultured in Neurobasal medium (Invitrogen) enriched with B27, bFGF, Penicillin/Streptomycin, L-Glutamin. For the neurite outgrowth assay the medium is mixed with conditioned medium in a 1:1 ratio. The neurites were immunocytochemically stained using an antibody against the axonal marker neurofilament-light. Photographs were acquired at 40-fold magnification (Olympus IX81) and assembled to allow analysis of whole individual neurons. The test compounds 1-(8-methyl-5 isoquinoline-sulfonyl)homopiperazine and 1-(1-chloro-8-methoxy-5 isoquinoline-sulfonyl)homopiperazine were added to the medium in the final concentration of 1.5 μM or 15 μM 1 h after plating in comparison to adding water which served as negative control. […] After 2 days in culture the cells were fixed. Photographs and neurite tracing were performed in a blinded manner.

[2] = target: over 400 kinases; assay: KinomeScan competition binding assay, kinase specificity; conditions: 10 μM; competition of more than 50% regarded as inhibitory; FIG. 13A
Excerpt: (§1) Based on a competition binding assay that quantitatively measures the ability of a test compound to compete with an immobilized, active-site directed ligand it is possible to scan the competitive effect of the test compound for a broad variety of kinases in parallel (KinomeScan, Ambit, San Diego, Calif., USA; Fabian et al., Nat. Biotechnol. 2005, 23, 329). Based on this analysis it is possible to assess the inhibitory specificity of a test compound. […] As result of the assay one obtains the percentage of competition of the active-site directed ligand for each of the over 400 kinases of the test due to the incubation with the test compounds. Competitions of more than 50% were regarded as significant indicating for inhibition of the particular kinase.

[3] = target: T1, recombinant active rho kinase 2 (ROCK) (Homo sapiens, UniProt O75116); assay: ROCK inhibition assay (ROCK assay kit, anti-phospho-MYPT1 detection); type: biochemical; conditions: test compounds 0.1 to 100 μM; compared to Fasudil in corresponding concentration; FIG. 12
T1 construct: purchased Upstate, Lake Placid, N.Y., USA (enzyme); Cell Biolabs Inc., San Diego (assay kit with substrate)
Protocol: The inhibitory effect of test compounds on rho kinase 2 (ROCK) was analyzed using recombinant active rho kinase 2 (Upstate, Lake Placid, N.Y., USA) and the a ROCK assay kit (Cell Biolabs Inc., San Diego, Calif., USA) following the manufacture's instruction. Recombinant rho kinase 2 was dissolved in kinase reaction buffer including the kinase substrate in the presence of the test compound. Test compounds were added in a final concentration of 0.1 to 100 μM. Assays without test compound served as control. […] Assays were incubated at 30° C. for 30-60 min and subsequently stopped by adding 50% of the reaction-volume of 0.5 M EDTA, pH 8.0. After washing steps phosphorylated kinase substrate was quantified using a specific anti-phospho-MYPT1 (Thr696) antibody and a HRP-conjugated secondary antibody.

[4] = target: T2, IRAK1 (Homo sapiens, UniProt P51617); assay: KinomeScan competition binding assay; conditions: 10 μM; competition of more than 50% regarded as inhibitory
T2 construct: purchased Ambit, San Diego, Calif., USA (KinomeScan)
Excerpt: as §1

[5] = test system: PIM kinases; assay: KinomeScan competition binding assay; conditions: 10 μM; competition of more than 50% regarded as inhibitory
Excerpt: as §1

[6] = test system: hippocampal slices; assay: In vitro LTP analysis (theta burst stimulation, fEPSP slope); type: cell-based, Wistar rats
Excerpt: Long-term potentiation (LTP) is an in vitro model for the assessment of memory function. Therefore, it allows analysis of test compounds, e.g. the compounds of the invention, e.g. 1-(8-methyl-5 isoquinoline-sulfonyl)homopiperazine and 1-(1-chloro-8-methoxy-5 isoquinoline-sulfonyl)homopiperazine, for memory enhancing potential. Experiments were done on hippocampal slices from 3-4 week-old Wistar rats. The rats were sacrificed by decapitation without prior anesthesia. Brains were quickly removed and soaked in ice cold artificial cerebrospinal fluid (ACSF) containing: NaCl (124 mM), KCl (5 mM), Na2HPO4 (1.2 mM), NaHCO3 (26 mM), CaCl2 (2 mM), MgSO4 (2 mM), and glucose (10 mM), that was continuously bubbled with carbogen (95% O2, 5% CO2). Slices were then cut at 400 μm thickness using a vibratome and incubated in ACSF at room temperature for at least 1 h before starting recordings. All compounds used were diluted in ACSF at the concentrations needed and were prepared fresh on the day of recording from 100 mM stock solutions. To assure proper solubility of the compounds, stock solutions were made with DMSO. For recording, slices were transferred to a 4-channel slice chamber (Synchroslice, Lohmann Research Equipment) that allows simultaneous recording of 4 brain slices. Each slice was placed in a separate submerged type slice chamber were it was continuously superfused with temperature controlled (34° C.) ACSF or ACSF at a rate of 2 ml/min. Under visual control by a camera system, a bipolar stimulation electrode (Rhoades) was placed in the Schaffer collaterals and a single biphasic electrical stimulus of a duration of 200 μs and an amplitude of 200 μA was applied at 0.05 Hz. A platinum/tungsten electrode was then lowered into the CA1 dendritic layer under visual control until stable amplitudes of the recorded fEPSP were achieved. After a recording period of at least 10 min, the input-output relationship between stimulus amplitude and fEPSP amplitude was achieved separately for each slice. […] To induce LTP, 10 theta bursts were applied. Each burst consisted of 4 biphasic stimuli of […] and 600 μA amplitude at a 10 ms interstimulus interval. The interburst interval was 200 ms. Each recording cycle started with a 15 min period in which electrical stimuli were applied at 0.05 Hz to assure stability of the fEPSP amplitude. Then, test the compound was washed in for a period of 30 min during which stimulation was continued at 0.05 Hz and fEPSPs were continuously recorded. LTP induction by theta burst stimulation was started 30 min after wash in. Recording was continued after LTP induction for at least 60 min, 30 min after LTP induction, compounds were washed out. All slices recorded simultaneously were treated with the same time schedule. From the recorded data, the amplitudes of the evoked fEPSP were automatically calculated by the recording software (Synchroslice data acquisition and analysis, LRE) as the negative peak of the postsynaptic signal with respect to baseline and plotted online. All recorded signals were digitally stored for later offline analysis, in particular for fEPSP negative slope calculation. From the stored single sweeps, the slope was calculated between 30% and 70% of the maximum fEPSP amplitude. To allow comparison of data obtained from different slices, fEPSP slopes were normalized to the control value (100%).
Effects induced by applied substances were tested for statistical significance using either the Student's t-test or the Mann-Whitney Rank Sum Test, significance was assumed if p<0.05. Measurements for each experimental condition were repeated six times. Results are given as means from n=5 slices and standard deviation (SD). […] This could be due to the activation of undesired kinases and/or pathways at this concentration. […]

[7] = target: T3, ROCK2 (Homo sapiens, UniProt O75116); assay: KinomeScan competition binding assay; conditions: 10 μM; compared to Fasudil
T3 construct: purchased Ambit, San Diego, Calif., USA (KinomeScan)
Excerpt: as §1

[8] = test system: undifferentiated PC12 cells; conditions: Zhang et al. 2006; cited from earlier work
[9] = Huentelman et al. 2009; WO 2008/019395; cited from earlier work

T1 sequence (O75116 whole entry): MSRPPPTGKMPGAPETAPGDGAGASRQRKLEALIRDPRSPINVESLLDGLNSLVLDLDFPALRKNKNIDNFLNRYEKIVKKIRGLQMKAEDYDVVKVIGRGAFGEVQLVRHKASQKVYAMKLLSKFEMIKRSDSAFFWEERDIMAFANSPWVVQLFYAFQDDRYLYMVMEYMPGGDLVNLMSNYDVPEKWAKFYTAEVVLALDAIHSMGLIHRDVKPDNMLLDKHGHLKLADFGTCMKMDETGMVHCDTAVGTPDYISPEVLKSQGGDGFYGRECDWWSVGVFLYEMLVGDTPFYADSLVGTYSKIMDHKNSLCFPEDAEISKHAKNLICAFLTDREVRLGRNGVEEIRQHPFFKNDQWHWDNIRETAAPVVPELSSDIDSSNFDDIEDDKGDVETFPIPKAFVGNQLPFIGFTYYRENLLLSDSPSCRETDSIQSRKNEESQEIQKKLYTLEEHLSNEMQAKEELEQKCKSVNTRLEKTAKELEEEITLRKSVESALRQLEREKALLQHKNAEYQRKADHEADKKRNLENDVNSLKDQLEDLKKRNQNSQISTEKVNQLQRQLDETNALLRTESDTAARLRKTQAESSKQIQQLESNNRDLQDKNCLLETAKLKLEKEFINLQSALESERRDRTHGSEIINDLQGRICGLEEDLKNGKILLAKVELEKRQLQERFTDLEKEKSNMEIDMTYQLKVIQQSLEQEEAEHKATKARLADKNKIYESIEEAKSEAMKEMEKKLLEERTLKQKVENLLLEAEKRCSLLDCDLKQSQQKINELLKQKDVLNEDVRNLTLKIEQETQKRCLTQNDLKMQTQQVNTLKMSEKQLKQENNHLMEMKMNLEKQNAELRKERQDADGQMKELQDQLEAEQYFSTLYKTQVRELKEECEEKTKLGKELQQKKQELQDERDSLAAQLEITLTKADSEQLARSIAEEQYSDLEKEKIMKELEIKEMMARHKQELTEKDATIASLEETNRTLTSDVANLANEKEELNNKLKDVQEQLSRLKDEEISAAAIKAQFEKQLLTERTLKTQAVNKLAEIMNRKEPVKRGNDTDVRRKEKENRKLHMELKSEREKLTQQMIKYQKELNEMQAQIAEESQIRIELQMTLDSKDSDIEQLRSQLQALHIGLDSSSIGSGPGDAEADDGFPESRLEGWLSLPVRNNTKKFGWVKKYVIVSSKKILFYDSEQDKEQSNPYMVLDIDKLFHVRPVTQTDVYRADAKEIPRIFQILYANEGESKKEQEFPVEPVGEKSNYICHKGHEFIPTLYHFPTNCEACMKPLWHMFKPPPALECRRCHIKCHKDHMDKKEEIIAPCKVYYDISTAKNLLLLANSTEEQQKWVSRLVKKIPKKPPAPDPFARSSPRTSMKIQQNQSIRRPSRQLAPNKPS
T2 sequence (P51617 whole entry): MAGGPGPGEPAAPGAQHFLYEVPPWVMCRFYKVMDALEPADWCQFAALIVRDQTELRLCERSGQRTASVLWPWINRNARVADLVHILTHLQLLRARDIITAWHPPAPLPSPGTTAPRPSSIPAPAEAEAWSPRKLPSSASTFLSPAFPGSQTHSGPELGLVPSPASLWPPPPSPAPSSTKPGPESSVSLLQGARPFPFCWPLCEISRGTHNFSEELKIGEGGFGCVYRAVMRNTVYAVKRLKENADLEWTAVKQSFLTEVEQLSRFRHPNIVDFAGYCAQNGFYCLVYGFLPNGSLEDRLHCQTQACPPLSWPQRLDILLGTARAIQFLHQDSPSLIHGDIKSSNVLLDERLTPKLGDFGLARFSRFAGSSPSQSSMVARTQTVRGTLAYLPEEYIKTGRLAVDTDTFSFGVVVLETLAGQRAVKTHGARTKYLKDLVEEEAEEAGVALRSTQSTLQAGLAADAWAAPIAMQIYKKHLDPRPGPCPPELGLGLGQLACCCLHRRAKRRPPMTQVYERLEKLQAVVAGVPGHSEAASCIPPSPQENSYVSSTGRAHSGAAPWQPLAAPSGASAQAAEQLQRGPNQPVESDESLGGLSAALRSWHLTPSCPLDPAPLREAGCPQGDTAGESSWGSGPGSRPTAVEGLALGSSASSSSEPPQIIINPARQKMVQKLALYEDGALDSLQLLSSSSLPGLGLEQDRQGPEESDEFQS
T3 sequence (O75116 whole entry): as the sequence (O75116 whole entry) above

## COc1ccc(S(=O)(=O)N2CCCNCC2)c2ccnc(Cl)c12 [1-(1-chloro-8-methoxy-5 isoquinoline-sulfonyl)homopiperazine]
[1]
  neurite outgrowth promoting activity: did not significantly promote neurite outgrowth
[2]
  kinase specificity / kinase interaction spectrum: much more specific ROCK inhibitor than Fasudil; also recorded: very specific ROCK inhibitor
[3]
  ROCK inhibition (rho kinase 2 activity): enhanced ROCK inhibition compared to Fasudil
[4]
  inhibitory effect for IRAK1: mainly inhibitory effect only for PIM kinases and IRAK1
[5]
  inhibitory effect for PIM kinases: mainly inhibitory effect only for PIM kinases and IRAK1
[6]
  enhancement of LTP (overall conclusion): significant enhancement of LTP
[6]; 1 μM
  effect on LTP: clearly superior LTP stimulating effect compared to fasudil
[6]; 10 μM
  effect on LTP: LTP induction is unaltered but the maintenance seems to be impaired
[6]; 100 μM
  effect on LTP: LTP induction is blocked completely
[6]; 100 μM, after wash out
  synaptic activity upon removal of the substance: clear rebound of synaptic activity

## Cc1ccc(S(=O)(=O)N2CCCNCC2)c2ccncc12 [1-(8-methyl-5 isoquinoline-sulfonyl)homopiperazine]
[1]
  neurite outgrowth promoting activity: superior neurite outgrowth promoting activity
[2]
  kinase specificity / kinase interaction spectrum: broader kinase interaction spectrum comparable to that of Fasudil
[3]
  ROCK inhibition (rho kinase 2 activity): enhanced ROCK inhibition compared to Fasudil
[7]
  affinity to ROCK2: much stronger affinity to ROCK2 than Fasudil
[6]; 1 μM
  effect on LTP: blocks LTP
[6]; 100 μM
  effect on LTP: the ability of LTP induction is re-established

## O=S(=O)(c1cccc2cnccc12)N1CCCNCC1 [Fasudil]
[8]
  neurite outgrowth: increase neurite outgrowth
[9]
  learning and memory: can enhance learning and memory

Source: patent US20110294789A1, “COMPOUNDS FOR RHO KINASE INHIBITION AND FOR IMPROVING LEARNING AND MEMORY” (AMNESTIX, INC., priority 2008, published 2011)
